In patent publication US20140235630A1, “COMPOSITIONS AND METHODS FOR THE TREATMENT OF PROLIFERATIVE DISEASES” (Beth Israel Deaconess Medical Center, Inc., priority 2011, published 2014):

Key:
[1] = test system: phospho-AKT (S473); assay: AKT phosphorylation in tumor tissue (immunohistochemistry / immunoblot); format: in vivo, mouse; settings: for AKT phosphorylation in tumor tissue lysates: immunoblot, tumor taken 2-3 hours after last dose, Compound A 30 mg/kg/day, Compound B 50 mg/kg/day
Protocol: (§1) All animal experiments were conducted in accordance with IACUC-approved protocols at Beth Israel Deaconess Medical Center, Boston, and at the University of Vall d'Hebron, Barcelona, Spain. Female MMTV-CreBRCA1^f/fp53+/− mice were obtained by breeding BRCA1 conditional knockout mice from the NIH repository (01XC8, strain C57BL/6) (Xu et al. Nat. Genet., 22: 37-43, 1999); with MMTV-Cre (Jackson Laboratory B6129-TgN(MMTV-Cre)4Mam) (Wagner et al. Nucleic Acids Res., 25: 4323-4330, 1997) and p53 knockout (Taconic Farms, P53N12-M, C57BL/6) (Donehower et al. Nature, 356: 215-221, 1992). At the time of the study, mice had been inbred for 4 years (>7 generations). The floxed or wild type status of Brca1, the presence of the MMTV-Cre transgene and the p53 heterozygosity were determined by PCR. Mice were examined for the occurrence of tumors twice weekly. When tumormetrics were performed, the length and width of the tumor was determined using calipers, and the tumor volume was determined (width^2×length/2). Tumor volume was used as a measure of growth and was recorded as ratio to tumor volume at diagnosis. Tumor doubling times were calculated using the functions of the best fit curves for all data points in each treatment modality. 5-(2,6-dimorpholinopyrimidin-4-yl)-4-(trifluoromethyl)pyridin-2-amine (Compound A) was resuspended in 5% Methylcellulose solution (Fluka) and administered via oral gavage at 50 mg/kg/day or 30 mg/kg/day. […]
Cells were treated with mock, 5-(2,6-dimorpholinopyrimidin-4-yl)-4-(trifluoromethyl)pyridin-2-amine (Compound A), 4-[[3-[4-(cyclopropanecarbonyl)piperazine-1-carbonyl]-4-fluorophenyl]methyl]-2H-phthalazin-1-one (Compound B), KU-55933, or the combination and lysed in cell lysis buffer (9803, Cell Signaling) as per the manufacturer's instructions. […] The protein concentration was determined using Bradford reagent (Biorad). […]

[2] = test system: spontaneous tumors of MMTV-CreBRCA1^f/fp53+/− mice; assay: Tumor growth (relative tumor volume, doubling time) in spontaneous BRCA1-related breast cancer model; format: in vivo, mouse; settings: for tumor doubling time: Compound A 50 or 30 mg/kg/day gavage (pooled), Compound B 50 mg/kg/day i.p., vehicle 5 days; for prolongation of tumor doubling time versus vehicle control: versus 5 days with vehicle
Protocol: FIGS. 6A-6D are graphs showing the synergistic effect of a PI3K inhibitor (Compound A) and PARP inhibitor (Compound B) in treating breast cancer. Trendlines (bold lines) were calculated using all data points to determine best fit and show the relative tumor growth in the vehicle control cohort (as in FIG. 6A) and in the Compound A cohort (as in FIG. 6B). The functions of the best-fit curves were used to determine tumor doubling times for all three treatment modalities and controls. Tumor-bearing MMTV-CreBRCA1^f/fp53+/− were treated with either vehicle control (6A); Compound A (6B, 50 mg/kg/day (n=11) or 30 mg/kg/day (n=10)); Compound B (6C, 50 mg/kg/day (n=8)); or the combination of Compound A and Compound B (6D, Compound A 50 mg/kg/day+Compound B 50 mg/kg/day (n=8) or Compound A 30 mg/kg/day+Compound B 50 mg/kg/day (n=7)) and tumor volumes were measured every 2-3 days using calipers.
FIG. 7 is a graph showing the relative tumor volume (RTV) over time of tumor-bearing MMTV-CreBRCA1^f/fp53+/− mice treated with a control vehicle (n=3), PI3Kα-specific inhibitor Compound C alone (n=7), or a combination of pan-PARP inhibitor Compound B and PI3Kα-specific inhibitor Compound C (n=6). The data of the control and Compound C alone treatment groups are represented by trendlines calculated using all data points to determine best fit. The data of the combination treatment group are individually represented.
as §1, with “modality.” for “modality. 5-(2,6-dimorpholinopyrimidin-4-yl)-4-(trifluoromethyl)pyridin-2-amine (Compound A) was resuspended in 5% Methylcellulose solution (Fluka) and administered via oral gavage at 50 mg/kg/day or 30 mg/kg/day.”

## Nc1cc(C(F)(F)F)c(-c2cc(N3CCOCC3)nc(N3CCOCC3)n2)cn1 [Compound A, 5-(2,6-dimorpholinopyrimidin-4-yl)-4-(trifluoromethyl)pyridin-2-amine]
[1]; IHC of biopsies before and after two weeks of treatment
  phosphorylation of AKT at Ser-473 in tumors: strongly decreased
[1]
  AKT phosphorylation in tumor tissue lysates: potently reduced
[2]
  tumor doubling time: 26 days
  prolongation of tumor doubling time versus vehicle control: 5 fold

## O=C(c1cc(Cc2n[nH]c(=O)c3ccccc23)ccc1F)N1CCN(C(=O)C2CC2)CC1 [Compound B, 4-[[3-[4-(cyclopropanecarbonyl)piperazine-1-carbonyl]-4-fluorophenyl]methyl]-2H-phthalazin-1-one, reference compound]
[1]
  AKT phosphorylation in tumor tissue lysates: induction of AKT phosphorylation
[2]
  tumor doubling time: 16 days
  prolongation of tumor doubling time versus vehicle control: three-fold
